Data on four molecules can be found in ChEMBL document CHEMBL1649432, “Chromosomal integration of the extended-spectrum beta-lactamase gene blaCTX-M-15 in Salmonella enterica serotype Concord isolates from internationally adopted children” (2009).

Assay type in all cases: functional, Salmonella enterica subsp. enterica serovar Concord
A short description of assay [1]: Antimicrobial activity against Salmonella enterica serotype concord expressing extended-spectrum beta-lactamase SHV-12 by Etest.
The nature of assay [2]: Antimicrobial activity against Salmonella enterica serotype concord expressing extended-spectrum beta-lactamase CTX-M-15 by Etest.
Assay [3] in a line: Antimicrobial activity against Salmonella enterica serotype concord expressing extended-spectrum beta-lactamase SHV-12 by disc diffusion method.
Assay [4] is described as follows: Antimicrobial activity against Salmonella enterica serotype concord expressing extended-spectrum beta-lactamase CTX-M-15 by disc diffusion method.

≈ marks a conversion by molar mass, not a printed value.

Take `CC(C)(O/N=C(\C(=O)N[C@@H]1C(=O)N2C(C(=O)[O-])=C(C[n+]3ccccc3)CS[C@H]12)c1csc(N)n1)C(=O)O` [CEFTAZIDIME]: the minimum inhibitory concentration (MIC) in assay [1] and in assay [2] was > 256 µg/mL in each case.
Turning to `CO/N=C(\C(=O)N[C@@H]1C(=O)N2C(C(=O)O)=C(CSc3nc(=O)c(O)nn3C)CS[C@H]12)c1csc(N)n1` [CEFTRIAXONE], the MIC in assay [1] is 64 µg/mL (≈ 115 µM); in assay [2], > 256 µg/mL.
Take `CO/N=C(\C(=O)N[C@@H]1C(=O)N2C(C(=O)[O-])=C(C[N+]3(C)CCCC3)CS[C@H]12)c1csc(N)n1` [CEFEPIME]: the MIC in assay [3] was 8 µg/mL (≈ 16.6 µM); in assay [4] (Salmonella enterica), > 256 µg/mL.
In turn, `O=C(O)c1cn(C2CC2)c2cc(N3CCNCC3)c(F)cc2c1=O` [CIPROFLOXACIN] registered an Activity in assay [4] of 0.25 µg/mL.
